From paper PMC12785583, “Coconut Milk-Derived Bioactive Peptides as Multifunctional Agents Against Hyperglycemia, Oxidative Stress, and Glycation: An Integrated Experimental and Computational Study” (International Journal of Molecular Sciences, 2025) come the findings set out here.

Data set [1] addresses T1, porcine pancreatic α-amylase (Sus scrofa, UniProt P00690).
T1 construct: purchased SRL (Sisco Research Laboratories)
T1 sequence (P00690 16-511): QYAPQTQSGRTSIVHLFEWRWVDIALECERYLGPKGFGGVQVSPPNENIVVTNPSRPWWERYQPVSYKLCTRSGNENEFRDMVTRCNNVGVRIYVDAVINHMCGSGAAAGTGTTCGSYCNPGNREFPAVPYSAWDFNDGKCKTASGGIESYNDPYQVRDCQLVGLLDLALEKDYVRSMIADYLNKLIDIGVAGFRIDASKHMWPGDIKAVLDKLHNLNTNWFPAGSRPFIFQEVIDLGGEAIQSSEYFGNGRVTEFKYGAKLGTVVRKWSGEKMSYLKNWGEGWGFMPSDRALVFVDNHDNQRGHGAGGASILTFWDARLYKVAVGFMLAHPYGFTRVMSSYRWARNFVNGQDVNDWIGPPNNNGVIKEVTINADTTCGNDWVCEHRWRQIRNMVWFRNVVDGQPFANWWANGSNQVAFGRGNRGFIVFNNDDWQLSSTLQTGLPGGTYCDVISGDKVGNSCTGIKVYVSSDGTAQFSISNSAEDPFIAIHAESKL
Kind of data set: α-amylase inhibition assay. Format: biochemical. Here is the method:
The enzymatic reaction was initiated by adding the starch substrate and allowed to proceed for 15 min. The reaction was then terminated by adding the 3,5-dinitrosalicylic acid (DNSA) reagent, and the mixture was heated to boiling for 5 min. […] IC50 values were obtained from plots of percentage inhibition versus sample concentration.

The subject of data set [2] is human erythrocytes. Briefly: hemolytic assay. In kind it is cell-based. As for the experimental part:
The hemolytic potential of the lead peptides was determined following an established erythrocyte hemolysis protocol. In brief, 15 mL of venous blood was drawn from a healthy individual, centrifuged at 3000 rpm for 10 min, and the plasma was discarded. The residual pellet (RBCs) was washed 3 times with PBS (pH 7.4, 0.1 M), and the resultant pellet was resuspended in PBS in a 1:10 ratio. Subsequently, 0.9 mL of the RBC suspension was incubated with 0.1 mL of peptides at various concentrations, a negative control (100 μL PBS + 900 μL RBC suspension), and a positive control (100 μL of 0.5% Triton-X-100 + 900 μL of RBC suspension), and incubated at 37 °C for 24 h. Post incubation, all tubes were centrifuged at 3000 rpm for 10 min. 0.1 mL of the supernatant was then transferred to 96-well plates, and the absorbance of the supernatant was read at 540 nm. […] The corrected values were calculated as Acontrol=Apos−Aneg and Asample=Atest−Aneg where Apos , Aneg and Atest are the absorbance values of the positive control, negative control, and peptide-treated sample (given concentration), respectively.

Data set [3] in a line: DPPH radical scavenging assay. Here is the method:
The antioxidant assays of the test compounds were conducted in vitro, following previous studies, using the standard DPPH, ABTS, and superoxide radical scavenging assays. Regarding the DPPH assay, 0.2 mL of the test samples (peptides 1 and 2) at various concentrations was added to 1.2 mL of a 40 μg/mL DPPH solution in methanol. The mixtures were shaken vigorously and incubated in the dark for 20 min, after which the reduction in DPPH absorption was measured at 517 nm. The samples without DPPH and with methanol served as blanks. Ascorbic acid was used as the positive control.
(DPPH is a stable violet radical that fades when it is reduced.)

Data set [4] can be described thus: superoxide radical scavenging assay (NBT). As for the experimental part: After 10 min of incubation at 25 °C in the dark, absorbance was recorded at 560 nm. Samples without NBT served as blanks, and ascorbic acid was used as the positive control. The results were expressed as the effective concentration (EC50) values.

Where two headings read alike, the source gives them in different places.

Regarding H-ADVFNPR-OH [Peptide 2, ADVFNPR], the IC50 (commonly the concentration that inhibits the measured activity by half) in data set [1] (mean ± SD, read-out: α-Amylase Inhibition IC50 (converted)) was 103 µM; in data set [1] (read-out: α-Amylase Inhibition IC50 (value in bracket) (converted)), 103 µM. Further, in data set [2], the “Hemolytic Assay (HC50)” value is 231.53 ± 0.14 µg/mL. The “Hemolytic Assay (HC50) (value in bracket)” value in data set [2] (red cells of human, 24 h) is 283.08 µM. The “DPPH Radical Scavenging Assay EC50” value in data set [3] was determined as 22.14 ± 0.12 µg/mL. For the same substance, the figures for the EC50 in data set [3] (read-out: DPPH Radical Scavenging Assay EC50 (value in bracket) (converted)) and in data set [4] (read-out: Superoxide Radical Scavenging Assay EC50 (value in bracket) (converted)) were 27.1 µM and 51.9 µM, respectively. The “Superoxide Radical Scavenging Assay EC50” value in data set [4] is 42.45 ± 0.30 µg/mL.
